{"source": "patent US20110195910A1", "about": "“USE OF TOCOTRIENOL COMPOSITION FOR THE PREVENTION OF CANCER” (DAVOS LIFE SCIENCE PTE. LTD., priority 2008, published 2011)", "key": {"[1]": {"test": "Pharmacokinetics of γ-tocotrienol in mice (serum, HPLC)", "format": "in vivo, C57BL/6 black mice", "details": "1 mg γ-T3 i.p.", "experimental": "4.1.4 Pharmacokinetics of γ-Tocotrienol in Mice—C57BL/6 black mice were purchased from The Jackson Laboratory (Bar Harbor, Me., USA). Forty 5-week old mice were given a single dose i.p injection containing 1 mg of γ-T3. Five mice were sacrificed at different time points (10 min, 30 min, 1 h, 3 h, 6 h, 24 h, 48 h and 72 h). Blood samples were collected through cardiac bleeding. To isolate the serum, blood samples were incubated at room temperature for 30 min, followed by centrifugation at 4400 rpm, 4° C. for 30 min. γ-T3 concentration in serum was analyzed using HPLC method below.\n4.1.6 γ-Tocotrienol Extraction from Serums, Tumors and Organs—Serums were thawed and sonicated in an ultrasonic bath (Lab Companion, Vernon Hills, Ill., USA) for 5 min, followed by vortexing for 10 s. 100 μl of serum was transferred into IWAKI Pyrex glass tube (Jawa Tengah, Indonesia) containing 900 μl of water. For the tumors and organs preparation, the tissues were homogenized in 1 ml of water using borosilicate glass homogenizer (Fisher scientific, Pittsburgh, Pa.), followed by transferring to Pyrex glass tube. 5 μl of δ-T3 with purity 99% (100 mg of δ-T3 dissolved in 1 ml of ethanol) was used as an internal standard solution and was spiked into the mixture. The tube was vortexed for 10 s and sonicated for 2 min. 4 ml of the butylated hydroxytoluene (BHT) solution (5 mg of BHT in 100 ml of heptane) was added into the tube to minimize the oxidation of target analytes. Liquid-liquid extraction was performed by vortexing vigorously for 10 s. After liquid-liquid extraction, the tubes were centrifuged at 4000 rpm for 5 min in Heraeus Multifuge 3-SR Centrifuge (Newport Pagnell, Buckinghamshire, UK). 3.9 ml of the organic layer was transferred into another Pyrex tube. […]\n4.1.7 Determination of γ-Tocotrienol level by high performance liquid chromatography—A normal phase of HPLC method was performed as a modification of procedures known in the art. […] The absorbance of γ-T3 was monitored with a […] set at an excitation wavelength of 290 nm and emission wavelength of 360 nm."}, "DU145 prostaspheres": {"test_system": "DU145 prostaspheres", "test": "Treatment of pre-formed CSC-enriched DU145 prostaspheres", "format": "cell-based", "details": "48 hrs", "experimental": "(A) CSC enriched prostaspheres were formed by maintaining DU145 cells in non-adherent culture supplemented with serum replacement medium for 14 days. The prostaspheres were then treated with either vehicle, γ-T3 (10, 20 μg/ml) or Docetaxel (Doc, 40 ng/ml) for 48 hrs. Spheroids were counted under microscope before and after treatment. Results were presented as mean % change in spheroid number to control±s.d. Note that spheroids were highly sensitive to γ-T3 treatment but resistant to high dose of Docetaxel. (B) Images of prostaspheres after 48 hrs treatment with vehicle, 40 ng/ml of Docetaxel and 10 μg/ml of γ-T3.\n5.1.7 Spheroid formation assay—Spheroid formation assay was performed with a protocol modified from previous study (Folkins C, p3560). Briefly, cells were first trypsinized, washed with 1× PBS and resuspended in DMEM F12 medium. Two hundred cells were added into each well of a 24-well-plate pre-coated with polyHEMA (Sigma, St. Louis, Mo.). Cells will be grown in DMEM/F12 mem (Invitrogen, Carlsbad, Calif.) supplemented with 4 μg/mL insulin (Sigma, St. Louis, Mo.), B27 (Invitrogen, Carlsbad, Calif.), 20 ng/mL EGF (Sigma, St. Louis, Mo.), and 20 ng/mL basic FGF (Invitrogen, Carlsbad, Calif.). Fresh medium with the above supplements was added every day. γ-T3 was added at indicated time points and the number of spheroids was counted at day 14 of the assay or at the end of the treatment. Each experiment was repeated in triplicates and each data point represented the mean and standard derivation."}, "PC-3-luc cells": {"test_system": "PC-3-luc cells", "test": "Orthotopic PC-3 xenograft model (tumorigenicity of pre-treated cells)", "format": "in vivo, CB-17 SCID mice", "details": "cells pre-treated with 5 μg/ml for 24 hrs; two weeks after implantation", "experimental": "5.1.9 Orthotopic PC-3 xenograft model—The orthotopic model was established with procedures known in the art. Briefly, 8-week-old CB-17 SCID mice were anesthetized and placed under a dissecting microscope (Olympus, Tokyo, Japan). An incision at the midline of abdomen was made and the dorsal prostate was exposed at the base of the bladder. Equal amount of viable PC3-luc cells (2.6×10^4 cells resuspended in 5 μl of serum free RPMI) with or without prior γ-T3 treatment for 24 hrs were injected into the dorsal prostates of the mice. Organs were replaced and the abdomen was closed. To detect the bioluminescent signal of the cells, mice were anesthetized and then injected with 80 mg/kg of D-luciferin solution by i.p. (Xenogen Corporation, Cranbury, N.J.). Signal was captured by Xenogen IVIS 100 series imaging system. Tumors progression was monitored by measuring the bioluminescent signal (units of photons per second per unit area) every 2 weeks until 6-week post tumor implantation. Mice were sacrificed by cervical dislocation and tumors were collected and fixed in 10% formalin. All surgical and animal handling procedures were carried out according to the guidelines of the Committee on the Use of Live Animals in Teaching and Research (CULATR), The University of Hong Kong."}, "PC-3 cells": {"test_system": "PC-3 cells", "test": "Low-dose viability (MTT) and apoptotic markers, PC-3 cells", "format": "cell-based", "details": "2.5 and 5 μg/ml", "experimental": "5.1.4 Cell viability assay—Cell viability upon γ-T3 treatment was measured by 3-(4,5-Dimethyl thiazol-2-yl)-2,5-diphenyl tetrazolium bromide (MTT) assay. Briefly, cells were seeded on 96 well-plates and treated with different concentrations of γ-T3 for the indicated time point. At the end of the treatment, MTT (Sigma, St. Louis, Mo.) was added into each well and incubated for 4 hrs at RT. DMSO was then added into each well to dissolve the formazan crystals. The plate was allowed to incubate for a further 5 min at RT and the optical density (OD) was measured at a wavelength of 570 nm on a Labsystem multiskan microplate reader (Merck Eurolab, Dietikon, Schweiz). All individual wells were set in triplicates. The percentage of cell viability was presented as OD ratio between the treated and untreated cells at indicated concentrations.\n5.1.5 Western blotting was carried out as described above under 1.1.5. The membrane was incubated with primary antibodies directed against CD133 (Miltenyi Biotec, Auburn, Calif.), Bcl-2, PARP, cleaved caspase 3, 7, 9 (Cell Signaling, Technology Inc, Beverly, Mass.), CD44 and β-actin (Santa Cruz Biotechnology, Santa Cruz, Calif.). After washing with TBS-T, the membrane was incubated with secondary antibody against either mouse or rabbit IgG and the signals were visualized using ECL plus western blotting system (Amersham, Piscataway, N.J.)."}}, "data": [{"smiles": "CC(C)=CCC/C(C)=C/CC/C(C)=C/CCC1(C)CCc2cc(O)c(C)c(C)c2O1", "note": "(stereo not shown) [γ-T3, 7,8-dimethyltocotrienol]", "values": [{"measurement": "time the plasma level remains constant", "setting": "[1]", "result": "at least 72 hours"}, {"measurement": "plasma γ-T3 level, starting value", "setting": "[1]; before the fall", "result": 260, "unit": "ppm"}, {"measurement": "plasma γ-T3 level", "setting": "[1]; within 30 min after administration", "result": 50, "unit": "ppm"}, {"measurement": "decrease of spheroid number", "setting": "DU145 prostaspheres; 10 μg/ml", "result": 70, "unit": "%"}, {"measurement": "decrease of spheroid number", "setting": "DU145 prostaspheres; 20 μg/ml", "result": 76, "unit": "%"}, {"measurement": "mice that failed to develop visible tumor", "setting": "PC-3-luc cells", "result": "5 out of 7"}, {"measurement": "induction of apoptosis (viability assay and apoptotic markers)", "setting": "PC-3 cells", "result": "failed to detect a drastic induction of apoptosis"}]}]}
